Measurements as given in US20260274814A1, “THIENYL COMPOUNDS FOR THE TREATMENT OF A CENTRAL NERVOUS SYSTEM DISEASE OR DISORDER” (Coreterra Therapeutics, Inc., priority 2023, published 2026).
Where a name gives a salt, the structure may show the parent alone.

System: mice
Assay: Neuropharmacological Assay (SmartCube): automated behavioral signature of compound-treated mice compared with a database of reference drug classes
Format: in vivo
Conditions: for minimal effective dose: Mus musculus, ip, read-out: MED (minimal effective dose); for minimal effective dose / MED (minimal effective dose): dose having 45% or more total activity in SmartCube, i.p., if only one dose was tested, that dose is shown; for AD / AG / AN / AP / AX / CE / HL / MS / PS / SH / UK: probability that activity matches this class of agents, 3.0 mg/kg i.p., 15 min before test
Source text: Neurosci. 2011 Sep. 9; 5: 103 (doi: 10.3389/fnins.2011.00103) (“Roberds”). As reported in Roberds, because psychiatric diseases generally result from disorders of cell-cell communication or circuitry, intact systems are useful in detecting improvement in disease-relevant endpoints. These endpoints are typically behavioral in nature, often requiring human observation and interpretation. To facilitate testing of multiple compounds for behavioral effects relevant to psychiatric disease, PsychoGenics, Inc. (Tarrytown, NY, “PGI”) developed SmartCube™ an automated system in which behaviors of compound-treated mice are captured by digital video and analyzed with computer algorithms. (D. Brunner et al. Drug Discov. Today 2002, 7:S107-S112). PGI Analytical Systems uses data from SmartCube™ to compare the behavioral signature of a test compound to a database of behavioral signatures obtained using a large set of diverse reference compounds. (The composition of the database as well as validation of the method is further described in Roberds). In this way, the neuropharmacological effects of a test compound can be predicted by similarity to major classes of compounds, such as antipsychotics, anxiolytics and antidepressants.
The SmartCube™ system produces an activity signature indicating the probability that the activity of the test compound at the administered dose matches a given class of neuropharmacological agents. (See, e.g., Roberds, FIGS. 2 and 3). The test compound is simultaneously compared against multiple classes of agents; thus, a separate probability is generated for each behavioral effect measured (e.g., anxiolytic activity, analgesic activity, etc.). In table 2 below, these probabilities are reported for each behavioral effect measured as described in Table 1 below.
Provided compounds were dissolved in a mixture of Pharmasolve™ (N-methyl-2-pyrrolidone), polyethylene glycol and propylene glycol, and were injected i.p. 15 min. before the behavioral test. For each compound, injections were administered at 3 different doses. For each behavioral effect measured, results for the 3.0 mg/kg dose are presented. The potency of many of the compounds in the table was also determined in the SmartCube™ system. Test compounds were routinely examined at dose levels of 0.3, 1, 3 and 10 mg per kg (mpk), although the dose range was increased or decreased, if necessary, to obtain a full dose response curve. A compound's minimal effective dose (MED) is a measure of the compound's potency. The MED was defined as the dose (in mpk) having 45% or more total activity in SmartCube. If only one dose was tested, that dose is shown in the MED column of Table 2 even though the dose is not known to be the MED.

SMILES: CN(C)C1CCc2csc(C(F)(F)F)c2C1 (single isomer, unassigned) [Compound 120, N,N-dimethyl-3-(trifluoromethyl)-4,5,6,7-tetrahydro-2-benzothiophen-5-amine hydrochloride]
- minimal effective dose: 3 mg/kg
- AD: ND (^ <4%)
- AG: ND (^ <4%)
- AN: ND (^ <4%)
- AP: ++++ (≥74%)
- AX: ND (^ <4%)
- CE: ND (^ <4%)
- HL: ND (^ <4%)
- MS: ND (^ <4%)
- PS: ND (^ <4%)
- SH: ND (^ <4%)
- UK: ND (^ <4%)

SMILES: CN(C)C1(C)CCc2cscc2C1 (single isomer, unassigned) [Compound 121, N,N, 5-trimethyl-6,7-dihydro-4H-2-benzothiophen-5-amine hydrochloride]
- minimal effective dose: 3 mg/kg
- AD: ND (^ <4%)
- AG: ND (^ <4%)
- AN: ND (^ <4%)
- AP: + (≥4%)
- AX: + (≥4%)
- CE: ND (^ <4%)
- HL: ND (^ <4%)
- MS: ND (^ <4%)
- PS: ND (^ <4%)
- SH: ND (^ <4%)
- UK: +++ (≥49%)

SMILES: CC1(N)CCc2cscc2C1.Cl (single isomer, unassigned) [Compound 122, 5-methyl-6,7-dihydro-4H-2-benzothiophen-5-amine hydrochloride]
- minimal effective dose: 1 mg/kg
- AG: ND (^ <4%)
- AN: ND (^ <4%)
- AP: ND (^ <4%)
- CE: ND (^ <4%)
- MS: ND (^ <4%)
- SH: ND (^ <4%)
- UK: ND (^ <4%)
- AD (hydrochloride, 3 mg/kg): +++ (≥49%)
- AX (hydrochloride, 3 mg/kg): + (≥4%)
- HL (hydrochloride, 3 mg/kg): ND (^ <4%)
- PS (hydrochloride, 3 mg/kg): ND (^ <4%)

SMILES: CC1(N)CCc2cscc2C1.Cl (single isomer, unassigned) [Compound 123, 5-methyl-6,7-dihydro-4H-2-benzothiophen-5-amine hydrochloride]
- MED (minimal effective dose): 1 mpk
- AG: ND (^ <4%)
- AN: ND (^ <4%)
- AP: ND (^ <4%)
- CE: ND (^ <4%)
- MS: ND (^ <4%)
- SH: ND (^ <4%)
- UK: ND (^ <4%)
- AD (hydrochloride, 3 mg/kg): + (≥4%)
- AX (hydrochloride, 3 mg/kg): ND (^ <4%)
- HL (hydrochloride, 3 mg/kg): ++ (≥24%)
- PS (hydrochloride, 3 mg/kg): ++ (≥24%)

SMILES: Cl.c1scc2c1CCC(NC1CC1)C2 (single isomer, unassigned) [Compound 124, N-cyclopropyl-4,5,6,7-tetrahydro-2-benzothiophen-5-amine hydrochloride]
- MED (minimal effective dose) (hydrochloride): 3 mpk
- AG: ND (^ <4%)
- AN: ND (^ <4%)
- AP: ND (^ <4%)
- AX: ND (^ <4%)
- CE: ND (^ <4%)
- HL: ND (^ <4%)
- MS: ND (^ <4%)
- PS: ND (^ <4%)
- SH: ND (^ <4%)
- AD (hydrochloride, 3 mg/kg): ND (^ <4%)
- UK (hydrochloride, 3 mg/kg): +++ (≥49%)

SMILES: Cl.c1scc2c1CCC(NC1CC1)C2 (single isomer, unassigned) [Compound 125, N-cyclopropyl-4,5,6,7-tetrahydro-2-benzothiophen-5-amine hydrochloride]
- MED (minimal effective dose) (hydrochloride): 0.3 mpk
- AG: ND (^ <4%)
- AN: ND (^ <4%)
- AP: ND (^ <4%)
- AX: ND (^ <4%)
- CE: ND (^ <4%)
- HL: ND (^ <4%)
- MS: ND (^ <4%)
- PS: ND (^ <4%)
- SH: ND (^ <4%)
- AD (hydrochloride, 3 mg/kg): +++ (≥49%)
- UK (hydrochloride, 3 mg/kg): ND (^ <4%)

SMILES: Cl.FC1(F)CC(NC2CCc3cscc3C2)C1 (single isomer, unassigned) [Compound 126, N-(3,3-difluorocyclobutyl)-4,5,6,7-tetrahydro-2-benzothiophen-5-amine hydrochloride]
- minimal effective dose: > 30 mg/kg
- AD: ND (^ <4%)
- AG: ND (^ <4%)
- AN: ND (^ <4%)
- AP: ND (^ <4%)
- AX: ND (^ <4%)
- CE: ND (^ <4%)
- HL: ND (^ <4%)
- MS: ND (^ <4%)
- PS: ND (^ <4%)
- SH: ND (^ <4%)
- UK: ND (^ <4%)

SMILES: Cl.FC1(F)CC(NC2CCc3cscc3C2)C1 (single isomer, unassigned) [Compound 127, N-(3,3-difluorocyclobutyl)-4,5,6,7-tetrahydro-2-benzothiophen-5-amine hydrochloride]
- MED (minimal effective dose) (hydrochloride): 30 mpk
- AD: ND (^ <4%)
- AG: ND (^ <4%)
- AN: ND (^ <4%)
- AP: ND (^ <4%)
- AX: ND (^ <4%)
- CE: ND (^ <4%)
- HL: ND (^ <4%)
- MS: ND (^ <4%)
- PS: ND (^ <4%)
- SH: ND (^ <4%)
- UK: ND (^ <4%)

SMILES: c1scc2c1CCC(NC1COC1)C2 (single isomer, unassigned) [Compound 128, N-(4,5,6,7-tetrahydro-2-benzothiophen-5-yl)oxetan-3-amine]
- minimal effective dose: 10 mg/kg
- AD: ND (^ <4%)
- AG: ND (^ <4%)
- AN: ND (^ <4%)
- AP: ND (^ <4%)
- AX: ND (^ <4%)
- CE: ND (^ <4%)
- HL: ND (^ <4%)
- MS: ND (^ <4%)
- PS: ND (^ <4%)
- SH: ND (^ <4%)
- UK: + (≥4%)

SMILES: c1scc2c1CCC(NC1COC1)C2 (single isomer, unassigned) [Compound 129, N-(4,5,6,7-tetrahydro-2-benzothiophen-5-yl)oxetan-3-amine]
- MED (minimal effective dose): 10 mpk
- AD: ND (^ <4%)
- UK: + (≥4%)

SMILES: CNC1CCc2scc(Cl)c2C1 (single isomer, unassigned) [Compound 131, 3-chloro-N-methyl-4,5,6,7-tetrahydrobenzothiophen-5-amine hydrochloride]
- minimal effective dose: 3 mg/kg
- AG: ND (^ <4%)
- AN: ND (^ <4%)
- AX: ND (^ <4%)
- CE: ND (^ <4%)
- HL: ND (^ <4%)
- SH: ND (^ <4%)
- AD (hydrochloride, 3 mg/kg): + (≥4%)
- AP (hydrochloride, 3 mg/kg): ++ (≥24%)
- MS (hydrochloride, 3 mg/kg): + (≥4%)
- PS (hydrochloride, 3 mg/kg): ND (^ <4%)
- UK (hydrochloride, 3 mg/kg): ND (^ <4%)

SMILES: CNC1CCc2scc(Cl)c2C1 (single isomer, unassigned) [Compound 132, 3-chloro-N-methyl-4,5,6,7-tetrahydrobenzothiophen-5-amine hydrochloride]
- MED (minimal effective dose): 3 mpk
- AG: ND (^ <4%)
- AN: ND (^ <4%)
- AX: ND (^ <4%)
- CE: ND (^ <4%)
- HL: ND (^ <4%)
- SH: ND (^ <4%)
- AD (hydrochloride, 3 mg/kg): ND (^ <4%)
- AP (hydrochloride, 3 mg/kg): + (≥4%)
- MS (hydrochloride, 3 mg/kg): ND (^ <4%)
- PS (hydrochloride, 3 mg/kg): + (≥4%)
- UK (hydrochloride, 3 mg/kg): ++ (≥24%)

SMILES: CNC1CCc2csc(C#N)c2C1 (single isomer, unassigned) [Compound 133, 6-(methylamino)-4,5,6,7-tetrahydro-2-benzothiophene-1-carbonitrile hydrochloride]
- MED (minimal effective dose) (hydrochloride): <1 mpk
- AG: ND (^ <4%)
- AN: ND (^ <4%)
- AX: ND (^ <4%)
- CE: ND (^ <4%)
- HL: ND (^ <4%)
- MS: ND (^ <4%)
- PS: ND (^ <4%)
- SH: ND (^ <4%)
- AD (hydrochloride, 3 mg/kg): +++ (≥49%)
- AP (hydrochloride, 3 mg/kg): + (≥4%)
- UK (hydrochloride, 3 mg/kg): ND (^ <4%)

SMILES: CNC1CCc2csc(C#N)c2C1 (single isomer, unassigned) [Compound 134, 6-(methylamino)-4,5,6,7-tetrahydro-2-benzothiophene-1-carbonitrile hydrochloride]
- MED (minimal effective dose) (hydrochloride): 3 mpk
- AG: ND (^ <4%)
- AN: ND (^ <4%)
- AX: ND (^ <4%)
- CE: ND (^ <4%)
- HL: ND (^ <4%)
- MS: ND (^ <4%)
- PS: ND (^ <4%)
- SH: ND (^ <4%)
- AD (hydrochloride, 3 mg/kg): ND (^ <4%)
- AP (hydrochloride, 3 mg/kg): ND (^ <4%)
- UK (hydrochloride, 3 mg/kg): +++ (≥49%)
